According to patent US7507547B2, “Screening assays for antioxidants and antiproliferative compounds” (University of Massachusetts, priority 2004, dated 2009):
Several values for one entry are separate records, joined by “and”; a condition that tells them apart may be missing. Equal values may be shown once. Read-outs that look alike come from different tables or passages of the source. Square brackets hold non-standard residues; d marks the D form. Peptide text beside a SMILES is read from it. * marks the point of attachment. pGlu = O=C1CC[C@@H](C(=O)O)N1; X1 = O=C(Cc1ccc(O)c(I)c1)*; Nle = CCCC[C@H](N)C(=O)O

Tests used:
[1] = molecular target: T1, vasopressin (V1a) receptor (Homo sapiens, UniProt P37288); assay: ^125I-HOLVA binding to PC3 cell membranes; conditions: 60 μM agent
T1 construct: endogenous in cells; host or cells: PC3 cells (ATCC)

[2] = tested on: 5-LOX; conditions: range of reported values, various blood cell systems; cited from earlier work
[3] = tested on: NT-induced inositol phosphate (IP) formation in PC3 cells; assay: NT-induced IP formation in PC3 cells; type: cell-based; conditions: for IC50: Homo sapiens, PC-3; for IP Formation Efficacy (% decrease): maximal % decrease in NT-induced IP formation
[4] = molecular target: T2, NTR1 (Homo sapiens, UniProt P30989); assay: ^125I-NT binding to PC3 cells; conditions: for NT Binding Assay: ability to enhance NT binding in PC3 cells; for Efficacy for altering NT binding to NTR: flavonoids
T2 construct: endogenous in cells; host or cells: PC3 cells (ATCC)

[5] = molecular target: T2, NTR1; assay: Cell-surface binding and internalization of ^125I-NT in PC3 cells; type: cell-based; conditions: 50 μM agent, 37° C., prebound at 4° C.
[6] = tested on: PC3 cells; assay: NT-induced proliferation of PC3 cells (^3H-thymidine); type: cell-based; conditions: for IC50: Homo sapiens, PC-3, 24 hours, 10 nM NT, read-out: IC50 for inhibition of NT-induced proliferation
[7] = tested on: ERK; assay: NT-induced ERK activation in PC3 cells (western blot); type: cell-based; conditions: for IC50: Homo sapiens, PC-3, 0.05 h, 3 minutes, 10 nM NT
Procedure: Anticancer activity was assessed using methods from Hassan et al., Regul. […] Western blotting was used to assess activation of growth pathways. In particular we measured the activation of a MAP-kinase called ERK using antibodies specific for the phosphorylated form. Serum was withdrawn for 24 hours from 80% confluent PC3 cells in 60 mm dishes. Cells were washed in Locke, then exposed for 3 minutes to 10 nM NT as stimulus. Reactions were stopped on ice, and cells were washed in buffer containing phosphatase and protease inhibitors. Cells were extracted into 2×SDS buffer, and proteins were separated by SDS-PAGE using 10% minigels. Proteins were electroeluted onto PVDF, and blots were blocked in non-fat dry milk in TTBS buffer. Blots were incubated with the primary antibody in blocking buffer for 18 hours at 4° C., washed in TTBS, then incubated with horseradish peroxidase-linked secondary antibody for 1 hour at 20° C. Enhanced chemoluminescence was performed according to manufacturer (Santa Cruz) and autoradiographs were scanned for computerized densitometric analysis. The results for the phospho-ERK were normalized by stripping the blots and reprobing with antibodies that measured the total ERK concentration.

[8] = molecular target: T3, β2-adrenergic receptor (Homo sapiens, UniProt P07550); assay: ^125I-pindolol binding to PC3 cells
T3 construct: endogenous in cells; host or cells: PC3 cells (ATCC)

[9] = molecular target: T3, β2-adrenergic receptor; assay: ^125I-pindolol binding to PC3 cell membranes; conditions: 60 μM agent
[10] = tested on: IP formation in PC3 cells; assay: IP formation in PC3 cells in response to ionomycin; type: cell-based
Procedure: Ca^2+-ionophore (ionomycin) stimulated IP formation, reproducing ≅63% of the NT response. […] When added 2 minutes after a maximal dose of NT (30 nM), low doses of ionomycin (2-10 μM) enhanced the NT response. […] In contrast, a maximal dose of ionomycin gave less than additive enhancement of the NT response.

[11] = molecular target: T4, EGF receptor (Homo sapiens, UniProt P00533); assay: ^125I-EGF binding to PC3 cells
T4 construct: endogenous in cells; host or cells: PC3 cells (ATCC)

[12] = molecular target: T5, bombesin receptor (Homo sapiens, UniProt P30550); assay: ^125I-[Nle14]-bombesin binding to PC3 cells
T5 construct: endogenous in cells; host or cells: PC3 cells (ATCC)

[13] = molecular target: T2, NTR1; assay: ^125I-NT binding to PC3 cell membranes; conditions: 22° C., 60 minutes
[14] = molecular target: T1, vasopressin (V1a) receptor; assay: ^125I-HOLVA binding to PC3 cells
[15] = design: key: +: All of the compounds listed in Table 12 were anticancerous; conditions: from anticancer literature; cited from earlier work
[16] = tested on: cancers from skin, pancreas, liver and breast; conditions: Huang et al., 1999; cited from earlier work
[17] = tested on: melanoma cell growth; conditions: Casagrande and Darbon, 2001; cited from earlier work
[18] = tested on: protein kinase C; conditions: Ferriola et al., 1989; cited from earlier work
[19] = molecular target: neurotensin-2 receptor (NTR2) (Homo sapiens, UniProt O95665); conditions: read-out: binding affinity; cited from earlier work
[20] = molecular target: neurotensin-1 receptor (NTR1) (Homo sapiens, UniProt P30989); conditions: read-out: binding affinity; cited from earlier work
[21] = tested on: ATP-induced IP formation in PC3 cells; conditions: maximal dose (10 μM)
[22] = [agent] that decreased IP formation by 40%
[23] = [agent] giving 100% increase in NT binding
[24] = [agent] at which IP formation was decreased by 50%
[25] = 10^5 cpm ^125I-ligand, PC3 cells

T3 sequence (P07550 whole entry): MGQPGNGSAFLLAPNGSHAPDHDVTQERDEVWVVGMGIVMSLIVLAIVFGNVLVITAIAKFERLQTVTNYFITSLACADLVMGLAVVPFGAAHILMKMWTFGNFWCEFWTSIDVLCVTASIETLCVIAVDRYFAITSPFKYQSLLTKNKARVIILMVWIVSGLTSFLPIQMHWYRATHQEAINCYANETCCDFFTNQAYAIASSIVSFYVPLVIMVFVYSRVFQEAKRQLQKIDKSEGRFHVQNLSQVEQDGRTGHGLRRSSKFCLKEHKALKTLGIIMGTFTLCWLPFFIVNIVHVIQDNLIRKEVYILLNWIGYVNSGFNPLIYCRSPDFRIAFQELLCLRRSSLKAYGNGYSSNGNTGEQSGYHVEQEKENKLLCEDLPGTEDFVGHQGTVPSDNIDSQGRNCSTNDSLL
T1 sequence (P37288 whole entry): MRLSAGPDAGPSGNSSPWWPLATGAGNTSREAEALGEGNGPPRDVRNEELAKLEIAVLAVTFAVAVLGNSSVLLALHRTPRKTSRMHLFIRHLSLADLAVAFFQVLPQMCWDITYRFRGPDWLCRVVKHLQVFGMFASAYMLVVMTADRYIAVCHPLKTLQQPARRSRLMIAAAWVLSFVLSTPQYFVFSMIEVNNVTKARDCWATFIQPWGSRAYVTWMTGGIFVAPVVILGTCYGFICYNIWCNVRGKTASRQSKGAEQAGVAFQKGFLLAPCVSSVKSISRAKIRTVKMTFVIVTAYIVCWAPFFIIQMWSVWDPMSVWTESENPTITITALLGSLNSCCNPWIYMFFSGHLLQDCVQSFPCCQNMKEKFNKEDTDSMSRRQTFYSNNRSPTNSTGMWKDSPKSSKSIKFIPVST
T4 sequence (P00533 25-1210): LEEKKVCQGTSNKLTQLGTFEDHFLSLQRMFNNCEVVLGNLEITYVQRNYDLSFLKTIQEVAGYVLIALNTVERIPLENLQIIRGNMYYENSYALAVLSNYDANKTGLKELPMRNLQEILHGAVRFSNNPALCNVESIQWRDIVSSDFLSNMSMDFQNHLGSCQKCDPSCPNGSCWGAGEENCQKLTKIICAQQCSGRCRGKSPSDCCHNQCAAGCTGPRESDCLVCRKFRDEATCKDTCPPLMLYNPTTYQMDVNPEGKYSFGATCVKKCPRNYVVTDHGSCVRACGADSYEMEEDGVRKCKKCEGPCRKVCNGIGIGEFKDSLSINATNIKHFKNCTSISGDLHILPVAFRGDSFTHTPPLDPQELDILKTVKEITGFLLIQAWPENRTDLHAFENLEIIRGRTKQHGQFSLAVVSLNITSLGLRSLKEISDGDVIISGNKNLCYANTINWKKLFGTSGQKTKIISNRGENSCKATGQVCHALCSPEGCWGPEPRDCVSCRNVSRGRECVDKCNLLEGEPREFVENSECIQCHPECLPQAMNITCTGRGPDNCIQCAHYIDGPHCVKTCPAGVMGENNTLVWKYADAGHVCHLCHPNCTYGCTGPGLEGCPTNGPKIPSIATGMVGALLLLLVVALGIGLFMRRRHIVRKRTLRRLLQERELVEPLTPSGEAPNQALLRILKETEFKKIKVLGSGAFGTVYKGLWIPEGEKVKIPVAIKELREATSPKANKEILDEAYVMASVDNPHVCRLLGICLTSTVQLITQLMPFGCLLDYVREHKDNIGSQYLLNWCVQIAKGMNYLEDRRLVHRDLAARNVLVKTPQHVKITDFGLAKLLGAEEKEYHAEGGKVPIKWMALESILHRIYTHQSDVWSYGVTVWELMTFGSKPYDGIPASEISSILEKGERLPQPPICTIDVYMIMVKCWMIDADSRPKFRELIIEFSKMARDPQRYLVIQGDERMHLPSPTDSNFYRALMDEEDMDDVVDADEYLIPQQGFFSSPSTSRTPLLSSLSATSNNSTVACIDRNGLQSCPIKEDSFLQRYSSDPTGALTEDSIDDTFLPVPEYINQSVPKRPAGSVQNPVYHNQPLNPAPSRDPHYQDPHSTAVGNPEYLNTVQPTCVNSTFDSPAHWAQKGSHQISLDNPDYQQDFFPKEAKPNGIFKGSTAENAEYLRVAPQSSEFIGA
T5 sequence (P30550 whole entry): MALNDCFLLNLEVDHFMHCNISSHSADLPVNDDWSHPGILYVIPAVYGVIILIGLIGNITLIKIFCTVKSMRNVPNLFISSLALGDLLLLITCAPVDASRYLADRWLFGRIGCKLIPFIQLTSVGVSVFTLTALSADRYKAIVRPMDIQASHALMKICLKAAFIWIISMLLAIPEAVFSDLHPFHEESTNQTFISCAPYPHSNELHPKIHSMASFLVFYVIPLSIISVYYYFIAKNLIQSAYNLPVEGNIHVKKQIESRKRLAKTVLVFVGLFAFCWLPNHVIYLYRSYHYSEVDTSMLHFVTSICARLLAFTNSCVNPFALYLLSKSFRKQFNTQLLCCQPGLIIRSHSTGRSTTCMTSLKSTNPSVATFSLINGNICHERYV
T2 sequence (P30989 whole entry): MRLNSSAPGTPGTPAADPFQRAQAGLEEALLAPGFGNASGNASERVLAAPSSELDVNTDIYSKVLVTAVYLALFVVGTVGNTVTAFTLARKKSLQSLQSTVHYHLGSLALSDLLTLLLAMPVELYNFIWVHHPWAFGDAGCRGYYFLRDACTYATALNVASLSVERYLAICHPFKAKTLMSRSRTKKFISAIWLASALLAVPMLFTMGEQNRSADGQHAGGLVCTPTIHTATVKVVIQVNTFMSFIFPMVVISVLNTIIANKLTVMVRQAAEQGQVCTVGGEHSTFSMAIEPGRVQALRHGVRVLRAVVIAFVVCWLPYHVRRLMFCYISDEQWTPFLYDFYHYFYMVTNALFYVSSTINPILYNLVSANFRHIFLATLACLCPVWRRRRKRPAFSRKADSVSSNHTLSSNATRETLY
Sequence of neurotensin-2 receptor (NTR2) (O95665 whole entry, species assumed): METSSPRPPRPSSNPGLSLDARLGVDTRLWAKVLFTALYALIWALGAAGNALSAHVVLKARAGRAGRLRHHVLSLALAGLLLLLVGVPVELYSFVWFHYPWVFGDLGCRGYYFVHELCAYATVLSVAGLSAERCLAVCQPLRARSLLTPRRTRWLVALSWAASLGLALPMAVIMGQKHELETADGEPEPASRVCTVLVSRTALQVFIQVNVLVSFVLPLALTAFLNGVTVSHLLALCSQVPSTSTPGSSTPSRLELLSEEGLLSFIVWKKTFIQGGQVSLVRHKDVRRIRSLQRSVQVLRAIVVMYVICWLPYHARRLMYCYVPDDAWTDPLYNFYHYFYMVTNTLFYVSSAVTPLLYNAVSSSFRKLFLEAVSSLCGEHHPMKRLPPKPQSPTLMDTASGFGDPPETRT
Sequence of neurotensin-1 receptor (NTR1) (P30989 whole entry, species assumed): as the sequence (P30989 whole entry) above

COC(=O)C1=C(C)NC(C)=C(C(=O)OC)C1c1ccccc1[N+](=O)[O-] [NIF, nifedipine]
Binding (% control ± SEM) [1]: 90 ± 3 % control

CCCCCC(O)c1cccc(OCc2ccc3ccccc3n2)c1 (stereo not drawn) [Rev5901]
IC50 [2]: 10 µM
IC50 [3, 22]: 8 µM
EC50 [4, 23]: 19 µM
NT binding increased as much as / up to (fold) ([4]; maximal enhancement of NT binding to PC3 cells): ≤ 2.4 fold

CCCCCC#CCC#CCC#CCC#CCCCC(=O)O [ETYA, 5,8,11,14-eicosatetraynoic acid]
IC50 [2]: 6 to 50 µM
IC50 [3, 22]: 32 µM
NT Binding Efficacy % increase ([4]; LOX blockers): 100 % increase
EC50 [4, 23]: 50 µM

O=C(CCc1ccc(O)cc1)c1c(O)cc(O)cc1O [Phloretin]
IC50 [3, 24]: 23 µM
IP Formation Efficacy (% decrease) [3]: 70 % decrease
Internalization rate of prebound cell-surface ^125I-NT [5]: 8.1±0.7 %/minute
EC50 [4]: 27 µM

Oc1ccc(C=Cc2cc(O)cc(O)c2)cc1 [resveratrol]
IC50 [6]: 3 µM
IC50 ([3]; [agent] giving 50% decrease in IP formation): 48 µM
IC50 [7]: 50 µM

C(=Cc1ccccc1)c1ccccc1 [stilbene]
Effect on NT-induced cell proliferation [6]: inactive
Effect on NT-induced ERK activation [7]: inactive

COc1ccc(CCCOC(Cn2ccnc2)c2ccc(OC)cc2)cc1 (stereo not drawn) [SKF-96365]
Binding (% control ± SEM) [1]: 110 ± 3 % control
% crossreaction (direct competition with ^125I-pindolol) [8]: ~0.0005%
Binding (% control ± SEM) [9]: 18 ± 5 % control
IC50 [3, 24]: 26 µM
IP Formation Efficacy (% decrease) [3]: 69 % decrease
EC50 ([4]; [agent] at which NT binding was increased by 80%): 23 µM
NT Binding Efficacy % increase ([4]; maximal % increase in NT binding observed for each agent): 155 % increase

C[C@H](CCC(=O)O)C[C@H](C)C[C@H](C)C(=O)/C=C(\O)[C@H](C)C[C@H](C)C/C=C/[C@@H](C)[C@@H](O)[C@@H](C)[C@@H](O)C[C@@H]1CC[C@@](C)([C@H]2CC[C@@](C)([C@@H](C)O)O2)O1 [ionomycin]
IP formation as share of the NT response [10]: ~63%

CC(C)c1ccc2c(c1)c(SC(C)(C)C)c(CC(C)(C)C(=O)O)n2Cc1ccc(Cl)cc1 [MK886]
Specific Binding (% control) ([8]; 12 μM agent): 105 ± 3 % control
Specific Binding (% control) ([8]; 60 μM agent): 102 ± 6 ^ % control
Specific Binding (% control) ([11]; 12 μM agent): 141 ± 7 % control
Specific Binding (% control) ([11]; 60 μM agent): 165 ± 11 % control
Increase in EGF binding ([11]; PC3 cells): 65%
IC50 [2]: 0.1 to 1 µM
Specific Binding (% control) ([12]; 12 μM agent): 106 ± 5 % control
Specific Binding (% control) ([12]; 60 μM agent): 125 ± 7 % control
Specific NT-Binding (% control) ([13]; 10 μM agent): 99 ± 3 % control
Specific NT-Binding (% control) ([13]; 25 μM agent): 107 ± 4 % control
Specific NT-Binding (% control) ([13]; 75 μM agent): 97 ± 4 % control
Specific Binding (% control) ([14]; 12 μM agent): 93 ± 5 % control
Specific Binding (% control) ([14]; 60 μM agent): 67 ± 3 % control
Anti-cancer [15]: +
NT Binding Efficacy % increase ([4]; LOX blockers): 210 % increase
EC50 [4, 23]: 18 µM
NT Binding Assay [4]: +

CCNC(=O)[C@H]1O[C@@H](n2cnc3c(N)nc(NCCc4ccc(CCC(=O)O)cc4)nc32)[C@H](O)[C@@H]1O [CGS21683]
IC50 [2]: 0.01 to 1 µM
EC50 [4, 23]: 22 µM

O=C1c2c(O)cc(O)cc2O[C@H](c2ccc(O)c(O)c2)[C@H]1O [taxifolin]
Efficacy to inhibit growth of cancers from skin, pancreas, liver and breast [16]: inactive
Efficacy to inhibit melanoma cell growth [17]: inactive
Effect on NT-induced cell proliferation [6]: inactive
Efficacy to inhibit protein kinase C [18]: inactive
Effect on NT-induced ERK activation [7]: inactive
Efficacy for altering NT binding to NTR [4]: inactive

catechin
Efficacy to inhibit growth of cancers from skin, pancreas, liver and breast [16]: inactive
Efficacy to inhibit melanoma cell growth [17]: inactive
Efficacy to inhibit protein kinase C [18]: inactive
Efficacy for altering NT binding to NTR [4]: inactive

Trp 11 NT(1-13): peptide identical to NT (1-13) except for substitution of tryptophan for tyrosine at amino acid 11 (QLYENKPRRPWIL; Neurotensin; UniProt P30990 151-163, looked up, variant Y11W)
Kd [19]: ~0.027 µM
Kd [20]: ~0.001 µM

CC(Cc1ccc(O)c(O)c1)C(C)Cc1ccc(O)c(O)c1 (stereo not drawn) [NDGA, Nordihydroguaiaretic acid]
IC50 [2]: 0.3 to 2 µM
IC50 [3, 22]: 7 µM
Anti-cancer [15]: +
NT Binding Efficacy % increase ([4]; LOX blockers): 230 % increase
EC50 [4, 23]: 16 µM
NT Binding Assay [4]: +

O=c1c(O)c(-c2ccc(O)c(O)c2)oc2cc(O)cc(O)c12 [quercetin]
IC50 [6]: 0.5 µM
IC50 [7]: 25 µM
Anti-cancer [15]: +
NT Binding Assay [4]: +

CCCC[C@H](NC(=O)[C@H](CC(C)C)NC(=O)[C@H](Cc1c[nH]cn1)NC(=O)CNC(=O)[C@@H](NC(=O)[C@H](C)NC(=O)[C@H](Cc1c[nH]c2ccccc12)NC(=O)[C@H](CCC(N)=O)NC(=O)[C@H](CC(N)=O)NC(=O)CNC(=O)[C@H](Cc1ccc(O)cc1)NC(=O)[C@H](CCCNC(=N)N)NC(=O)[C@H](CCC(N)=O)NC(=O)[C@@H]1CCC(=O)N1)C(C)C)C(N)=O [^125I-[Nle^14]-bombesin] ([pGlu]QRYGNQWAVGHL[Nle]-NH2; C-terminus assumed)
Specific Binding (% of total) [12, 25]: 95 % of total
Bmax ([12]; Scatchard analysis): 1016 ± 64 fmol/mg

CCOc1ccc(C[C@@H](NC(=O)Cc2ccc(O)c(I)c2)C(=O)N[C@@H](Cc2ccccc2)C(=O)N[C@@H](CCC(N)=O)C(=O)N[C@@H](CC(N)=O)C(=O)N[C@@H](CCCCN)C(=O)N2CCC[C@H]2C(=O)N[C@@H](CCCNC(=N)N)C(N)=O)cc1 [^125I-HOLVA, des-Gly-[Phaal, D-Tyr(Et)2, Lys6, Arg8]-vasopressin] (X1-[dY](Et)FQNKPR-NH2; N-terminus and C-terminus assumed)
Specific Binding (% of total) [14, 25]: 77 % of total
Bmax ([14]; Scatchard analysis): 156 ± 12 fmol/mg

Nc1ncnc2c1ncn2[C@@H]1O[C@H](COP(=O)(O)OP(=O)(O)OP(=O)(O)O)[C@@H](O)[C@H]1O [ATP]
Stimulation of IP formation by ATP [21]: ~17 fold and > 15 fold

COc1ccc(CCN(C)CCCC(C#N)(c2ccc(OC)c(OC)c2)C(C)C)cc1OC (stereo not drawn) [Verapamil, verapamil]
Binding (% control ± SEM) [1]: 91 ± 5 % control
% crossreaction (direct competition with ^125I-pindolol) [8]: ~0.0005%
Binding (% control ± SEM) [9]: 9 ± 2 % control
